According to patent publication EP2221053A1, “Pharmaceutical composition comprising protein methyltransferase I inhibitors and its use for treating tumour diseases” (Albert-Ludwigs-Universität Freiburg, priority 2009, dated 2010):
pIC50: −log10 of the molar value. Where two headings read alike, the source gives them in different places.

Experiments:
SET7/9 [1] = target: T1, SET7/9 (Homo sapiens, UniProt Q8WTS6); conditions: as described, Cheng et al.; cited from earlier work
T1 sequence (Q8WTS6 1-366): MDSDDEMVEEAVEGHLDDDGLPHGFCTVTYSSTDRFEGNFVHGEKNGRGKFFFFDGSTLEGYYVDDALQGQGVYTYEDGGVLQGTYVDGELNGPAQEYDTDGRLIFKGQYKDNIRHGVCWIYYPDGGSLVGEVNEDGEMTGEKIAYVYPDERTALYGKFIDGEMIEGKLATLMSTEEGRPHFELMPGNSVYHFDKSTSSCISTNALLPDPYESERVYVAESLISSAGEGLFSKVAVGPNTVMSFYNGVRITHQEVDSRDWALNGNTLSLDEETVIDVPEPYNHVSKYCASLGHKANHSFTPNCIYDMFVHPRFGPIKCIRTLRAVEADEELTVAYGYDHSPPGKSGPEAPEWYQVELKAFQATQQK

PRMT1 [2] = target: T2, PRMT1 (Homo sapiens, UniProt Q99873); conditions: in-vitro, Cheng et al.; cited from earlier work
Target sequence in this assay (Q99873 whole entry, species assumed): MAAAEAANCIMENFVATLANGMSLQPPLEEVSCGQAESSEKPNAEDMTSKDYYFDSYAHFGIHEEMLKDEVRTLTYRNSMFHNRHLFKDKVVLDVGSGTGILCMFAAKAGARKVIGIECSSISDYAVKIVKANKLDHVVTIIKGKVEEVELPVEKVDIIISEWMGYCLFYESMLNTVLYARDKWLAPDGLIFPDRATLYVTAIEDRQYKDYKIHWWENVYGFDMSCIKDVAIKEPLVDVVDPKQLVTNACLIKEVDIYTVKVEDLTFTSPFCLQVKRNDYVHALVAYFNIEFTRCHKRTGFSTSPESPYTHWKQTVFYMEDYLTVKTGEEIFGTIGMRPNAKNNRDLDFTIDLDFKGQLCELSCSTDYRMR

PRMT1 [3] = target: T2, PRMT1; test: Target-based virtual screening combined with biochemical test, PRMT inhibition of known inhibitors
Target sequence in this assay (Q99873 whole entry): as the sequence (Q99873 whole entry, species assumed) above

SET7/9 [4] = target: T1, SET7/9; test: In vitro selectivity test against lysine methyltransferase; format: biochemical
Source text: Für die Enzymhemmung wurde ein Assay verwendet, der auf immobilisierten Oligopeptiden als Enzymsubstrate und den entsprechenden Enzymen beruht. Die Quantifizierung der Methylierung erfolgt über einen Antikörper gegen das Dimethylarginin und die Detektion über einen Europium gelabelten Sekundärantikörper. Die potentesten Verbindungen wurden ebenfalls in-vitro auf ihre Selektivität gegenüber SET7/9, einer Lysinmonomethyltransferase untersucht. Die Methodik der verwendeten Testverfahren ist im Detail in der Dissertation von Astrid Spannhoff, "Neue Testsysteme für Histonmethyltransferasen und Histondemethylasen", Albert-Ludwigs-Universität Freiburg, 2007 beschrieben. Der Offenbarungsgehalt dieser Arbeit wird durch Bezugnahme hier eingeschlossen.

For `O=C(Nc1ccc2c(O)cc(S(=O)(=O)O)cc2c1)Nc1ccc2c(O)cc(S(=O)(=O)O)cc2c1` [AMI-1], the “Selektivität gegenüber der Lysinmethyltransferase SET7/9” value (SET7/9 [1]) is given as “selektiv”.

For `O.O.O.O=C([O-])c1ccccc1-c1c2cc(Br)c(=O)c(Br)c-2oc2c(Br)c([O-])c(Br)cc12.[Na+].[Na+]` [AMI-5], the pIC50 (PRMT1 [2]) is listed as 5.85 and the “Selektivität gegenüber der Lysinmethyltransferase SET7/9” value (SET7/9 [1]) is listed as “dualer Inhibitor”.

For Allantodapson, the “Mode of inhibition (Docking- und Kompetitionsexperimente)” value (PRMT1 [3]; conclusion from docking and competition experiments) was “zum Sustrat kompetitive Verbindungen”, the pIC50 (PRMT1 [3]; inhibitors of PRMT from target-based screening) was 5.77 and the pIC50 (SET7/9 [4]) was 4.96.
